Reference: patent US9365541B2, “Compounds for use in the treatment of parasitic diseases” (IRBM—SCIENCE PARK S.P.A., priority 2012, dated 2016)
pEC50, pIC50: −log10 of the molar value.

Legend:
[1] = system: Plasmodium falciparum 3D7; experiment: P. falciparum growth inhibition assay (Pf-LDH); type: cell-based; settings: Plasmodium falciparum, Erythrocyte; P. falciparum 3D7 infected erythrocytes, 72 h incubation, PfLDH readout
Procedure, shortened: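 P. falciparum 3D7 (chloroquine-sensitive) at 0.25% parasitemia and 2% hematocrit was incubated with compound for 72 h at 37° C under 4% CO2/3% O2/93% N2. After freeze-thaw, PfLDH activity was read at 650 nm with lactate/APAD/NBT/diaphorase mix (pH 8.0).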

human HDAC1 = biological target: T1, human HDAC1 (Homo sapiens, UniProt Q13547); experiment: Homo sapiens HDAC1 inhibition assay (Fluor-de-Lys, enzymatic); type: biochemical; settings: human HDAC enzymatic assay; read-out: hHDAC IC50
T1 construct: made in house; host or cells: HeLa (ATCC CCL-2), mammalian cells
Procedure, shortened: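 Product developed with trypsin developer containing 2 μM TSA to stop the reaction; fluorescence measures deacetylase activity, inversely related to inhibition.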

T1 sequence (Q13547 whole entry): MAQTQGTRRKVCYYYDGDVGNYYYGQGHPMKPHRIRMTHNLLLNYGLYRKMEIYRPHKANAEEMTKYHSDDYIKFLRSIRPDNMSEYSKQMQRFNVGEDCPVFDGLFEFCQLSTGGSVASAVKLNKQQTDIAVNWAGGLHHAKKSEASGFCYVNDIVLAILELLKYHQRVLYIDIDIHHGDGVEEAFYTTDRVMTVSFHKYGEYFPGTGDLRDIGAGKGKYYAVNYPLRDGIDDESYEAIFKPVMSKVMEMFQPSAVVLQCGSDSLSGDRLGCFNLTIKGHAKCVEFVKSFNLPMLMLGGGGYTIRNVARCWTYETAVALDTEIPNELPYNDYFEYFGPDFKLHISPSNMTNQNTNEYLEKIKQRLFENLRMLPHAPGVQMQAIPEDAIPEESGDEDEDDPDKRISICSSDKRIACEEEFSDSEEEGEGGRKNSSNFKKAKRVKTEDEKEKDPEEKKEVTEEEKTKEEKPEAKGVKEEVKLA

Structure (SMILES)	pEC50 [1]	pIC50 (human HDAC1)
CNC(=O)CCCCC[C@H](NC(=O)c1cncs1)c1ncc(-c2ccc3nc(OC)ccc3c2)[nH]1 [Entry 107, (S)-N-(1-(5-(2-methoxyquinolin-6-yl)-1H-imidazol-2-yl)-7-(methylamino)-7-oxoheptyl)thiazole-5-carboxamide]	> 6.00	> 6.00
CNC(=O)CCCCC[C@H](NC(=O)c1cncs1)c1ncc(-c2ccc(-c3ccccc3)cc2)[nH]1 [Entry 108, (S)-N-(1-(5-([1,1′-biphenyl]-4-yl)-1H-imidazol-2-yl)-7-(methylamino)-7-oxoheptyl)thiazole-5-carboxamide]	< 5.30	< 5.30
CNC(=O)CCCCC[C@H](NC(=O)c1cncs1)c1ncc(-c2ccc(-c3cccs3)cc2)[nH]1 [Entry 109, (S)-N-(7-(methylamino)-7-oxo-1-(5-(4-(thiophen-2-yl)phenyl)-1H-imidazol-2-yl)heptyl)thiazole-5-carboxamide]	5.30 to 6.00	5.30 to 6.00
CNC(=O)CCCCC[C@H](NC(=O)Cc1cnc2ccccc2c1)c1ncc(-c2ccc(-n3cccn3)cc2)[nH]1 [Entry 110]	5.30 to 6.00	> 6.00
CNC(=O)CCCCC[C@H](NC(=O)C1(F)CCN(C)CC1)c1ncc(-c2ccc3ccncc3c2)[nH]1 [Entry 111, (S)-4-fluoro-N-(1-(5-(isoquinolin-7-yl)-1H-imidazol-2-yl)-7-(methylamino)-7-oxoheptyl)-1-methylpiperidine-4-carboxamide]	< 5.30	5.30 to 6.00
CNC(=O)CCCCC[C@H](NC(=O)c1cncs1)c1ncc(-c2ccc3[nH]nnc3c2)[nH]1 [Entry 112, (S)-N-(1-(5-(1H-benzo[d][1,2,3]triazol-5-yl)-1H-imidazol-2-yl)-7-(methylamino)-7-oxoheptyl)thiazole-5-carboxamide]	< 5.30	< 5.30
CNC(=O)CCCCC[C@H](NC(=O)Cc1cnccn1)c1ncc(-c2ccc3ccccc3c2)[nH]1 [Entry 113]	5.30 to 6.00	5.30 to 6.00
CNC(=O)CCCCC[C@H](NC(=O)c1ccc2cnccc2c1)c1ncc(-c2ccc3ccccc3c2)[nH]1 [Entry 114, (S)-N-(7-(methylamino)-1-(5-(naphthalen-2-yl)-1H-imidazol-2-yl)-7-oxo-heptyl)isoquinoline-6-carboxamide]	5.30 to 6.00	5.30 to 6.00
CNC(=O)CCCCC[C@H](NC(=O)Cc1n[nH]c(=O)[nH]1)c1ncc(-c2ccc3ccccc3c2)[nH]1 [Entry 115]	5.30 to 6.00	5.30 to 6.00
CNC(=O)CCCCC[C@H](NC(=O)Cn1cnnc1)c1ncc(-c2ccc3ccccc3c2)[nH]1 [Entry 116, (S)-7-(2-(4H-1,2,4-triazol-4-yl)acetamido)-N-methyl-7-(5-(naphthalen-2-yl)-1H-imidazol-2-yl)heptanamide]	5.30 to 6.00	5.30 to 6.00
CNC(=O)CCCCC[C@H](NC(=O)c1ccc(-n2cnnn2)cc1)c1ncc(-c2ccc3ccccc3c2)[nH]1 [Entry 117, (S)-N-(7-(methylamino)-1-(5-(naphthalen-2-yl)-1H-imidazol-2-yl)-7-oxoheptyl)-4-(1H-tetrazol-1-yl)benzamide]	5.30 to 6.00	5.30 to 6.00
CNC(=O)CCCCC[C@H](NC(=O)C1CCN(C)CC1)c1ncc(-c2ccc3ccncc3c2)[nH]1 [Entry 118, (S)-N-(1-(5-(isoquinolin-7-yl)-1H-imidazol-2-yl)-7-(methylamino)-7-oxoheptyl)-1-methylpiperidine-4-carboxamide]	5.30 to 6.00	5.30 to 6.00
CNC(=O)CCCCC[C@H](NC(=O)Cn1ccc(C)n1)c1ncc(-c2ccc3ccncc3c2)[nH]1 [Entry 119]	5.30 to 6.00	5.30 to 6.00
CNC(=O)CCCCC[C@H](NC(=O)c1cncs1)c1ncc(-c2ccc(-c3ncccn3)cc2)[nH]1 [Entry 120, (S)-N-(7-(methylamino)-7-oxo-1-(5-(4-(pyrimidin-2-yl)phenyl)-1H-imidazol-2-yl)heptyl)thiazole-5-carboxamide]	5.30 to 6.00	5.30 to 6.00
CNC(=O)CCCCC[C@H](NC(=O)C1(C)CCCO1)c1ncc(-c2ccc3ccncc3c2)[nH]1 (stereo partly drawn) [Entry 121, N-((S)-1-(5-(isoquinolin-7-yl)-1H-imidazol-2-yl)-7-(methylamino)-7-oxoheptyl)-2-methyltetrahydrofuran-2-carboxamide]	< 5.30	< 5.30
CNC(=O)CCCCC[C@H](NC(=O)CCc1c(C)nc2ncnn2c1C)c1ncc(-c2ccc3ccncc3c2)[nH]1 [Entry 122]	> 6.00	> 6.00
CNC(=O)CCCCC[C@H](NC(=O)C1(C)CCCO1)c1ncc(-c2ccc(-c3ccn(C)n3)cc2)[nH]1 (stereo partly drawn) [Entry 123, 2-methyl-N-((S)-1-(5-(4-(1-methyl-1H-pyrazol-3-yl)phenyl)-1H-imidazol-2-yl)-7-(methylamino)-7-oxoheptyl)tetra-hydrofuran-2-carboxamide]	< 5.30	< 5.30
CNC(=O)CCCCC[C@H](NC(=O)c1cnc(CN2CCCC2)s1)c1ncc(-c2ccc(-c3ccn(C)n3)cc2)[nH]1 [Entry 124, (S)-N-(1-(5-(4-(1-methyl-1H-pyrazol-3-yl)phenyl)-1H-imidazol-2-yl)-7-(methylamino)-7-oxoheptyl)-2-(pyrrolidin-1-ylmethyl)thiazole-5-carboxamide]	> 6.00	5.30 to 6.00
CNC(=O)CCCCC[C@H](NC(=O)c1cncs1)c1ncc(-c2ccn3ncnc3c2)[nH]1 [Entry 125, (S)-N-(1-(5-([1,2,4]triazolo[1,5-a]pyridin-7-yl)-1H-imidazol-2-yl)-7-(methylamino)-7-oxoheptyl)thiazole-5-carboxamide]	< 5.30	< 5.30
CNC(=O)CCCCC[C@H](NC(=O)c1cncs1)c1ncc(-c2ccc3ncccc3c2)[nH]1 [Entry 127, (S)-N-(7-(methylamino)-7-oxo-1-(5-(quinolin-6-yl)-1H-imidazol-2-yl)heptyl)thiazole-5-carboxamide]	> 6.00	5.30 to 6.00
CNC(=O)CCCCC[C@H](NC(=O)c1cncs1)c1ncc(-c2ccc3ccccc3n2)[nH]1 [Entry 128, (S)-N-(7-(methylamino)-7-oxo-1-(5-(quinolin-2-yl)-1H-imidazol-2-yl)heptyl)thiazole-5-carboxamide]	5.30 to 6.00	< 5.30
CNC(=O)CCCCC[C@H](NC(=O)c1cncs1)c1ncc(-c2ccc(Cl)c(Cl)c2)[nH]1 [Entry 129, (S)-N-(1-(5-(3,4-dichlorophenyl)-1H-imidazol-2-yl)-7-(methylamino)-7-oxoheptyl)thiazole-5-carboxamide]	< 5.30	< 5.30

More lines, now with the values ahead:

pEC50 [1]	pIC50 (human HDAC1)	Structure (SMILES)
5.30 to 6.00	< 5.30	CNC(=O)CCCCC[C@H](NC(=O)CCN1CCOCC1)c1ncc(-c2cc3ccccc3nc2OC)[nH]1 [Entry 130]
5.30 to 6.00	> 6.00	CNC(=O)CCCCC[C@H](NC(=O)CCN1CCN(C)CC1)c1ncc(-c2cc3ccccc3nc2OC)[nH]1 [Entry 131]
> 6.00	> 6.00	CNC(=O)CCCCC[C@H](NC(=O)c1cncs1)c1ncc(-c2ccc3c(ccn3C)c2)[nH]1 [Entry 132, (S)-N-(1-(5-(1-methyl-1H-indol-5-yl)-1H-imidazol-2-yl)-7-(methylamino)-7-oxoheptyl)thiazole-5-carboxamide]
5.30 to 6.00	5.30 to 6.00	CNC(=O)CCCCC[C@H](NC(=O)C1(C)CCOCC1)c1ncc(-c2cc3ccccc3nc2OC)[nH]1 [Entry 133, (S)-N-(1-(5-(2-methoxyquinolin-3-yl)-1H-imidazol-2-yl)-7-(methylamino)-7-oxoheptyl)-4-methyltetrahydro-2H-pyran-4-carboxamide]
5.30 to 6.00	< 5.30	CNC(=O)CCCCC[C@H](NC(=O)CCc1cnn(C)c1)c1ncc(-c2cc3ccccc3nc2OC)[nH]1 [Entry 134]
5.30 to 6.00	< 5.30	CNC(=O)CCCCC[C@H](NC(=O)c1ccn(C)n1)c1ncc(-c2cc3ccccc3nc2OC)[nH]1 [Entry 135, (S)-N-(1-(5-(2-methoxyquinolin-3-yl)-1H-imidazol-2-yl)-7-(methylamino)-7-oxoheptyl)-1-methyl-1H-pyrazole-3-carboxamide]
< 5.30	< 5.30	CNC(=O)CCCCC[C@H](NC(=O)c1cncs1)c1ncc(-c2ccc3occc3c2)[nH]1 [Entry 136, (S)-N-(1-(5-(benzofuran-5-yl)-1H-imidazol-2-yl)-7-(methylamino)-7-oxoheptyl)thiazole-5-carboxamide]
< 5.30	< 5.30	CNC(=O)CCCCC[C@H](NC(=O)c1cncs1)c1ncc(-c2ccc3ccccc3c2F)[nH]1 [Entry 137, (S)-N-(1-(5-(1-fluoronaphthalen-2-yl)-1H-imidazol-2-yl)-7-(methylamino)-7-oxoheptyl)thiazole-5-carboxamide]
> 6.00	5.30 to 6.00	CNC(=O)CCCCC[C@H](NC(=O)c1cncs1)c1ncc(-c2ccc3cnccc3c2)[nH]1 [Entry 138, (S)-N-(1-(5-(isoquinolin-6-yl)-1H-imidazol-2-yl)-7-(methylamino)-7-oxoheptyl)thiazole-5-carboxamide]
5.30 to 6.00	5.30 to 6.00	CNC(=O)CCCCC[C@H](NC(=O)c1cncs1)c1ncc(-c2ccc(-c3ccccn3)cc2)[nH]1 [Entry 139, (S)-N-(7-(methylamino)-7-oxo-1-(5-(4-(pyridin-2-yl)phenyl)-1H-imidazol-2-yl)heptyl)thiazole-5-carboxamide]
5.30 to 6.00	5.30 to 6.00	CNC(=O)CCCCC[C@H](NC(=O)c1cncs1)c1ncc(-c2cc3ccccc3n(C)c2=O)[nH]1 [Entry 140, (S)-N-(1-(5-(1-methyl-2-oxo-1,2-dihydroquinolin-3-yl)-1H-imidazol-2-yl)-7-(methylamino)-7-oxoheptyl)thiazole-5-carboxamide]
